“Also recorded” adds a separate entry of the source.
How the values were obtained:
[1] = test system: dsDNACT; test: UV-Vis absorbance titration with dsDNACT; assay type: binding, calf; conditions: addition of dsDNACT (< 2.5 eq of DNA); 12.3 µM dye in 10 mM Tris pH 7.6 and 50 mM KCI
Experimental: UV-Vis titration measurements were performed on a Jasco V-650 UV-Vis spectrophotometer equipped with a Jasco PAC-743 temperature controlled cell holder and a Julabo F250 cooling system to maintain the temperature constant at 20°C during the measurements. UV-Vis titration measurements were performed in a 500 µL quarz cuvette with a pathlength of 1 cm at 20°C. The absorbance spectra were recorded from 400 nm to 800 nm.
UV-Vis titration measurements were performed at a concentration of 12.3 µM of the dye in 10 mM Tris pH 7.6 and 50 mM KCI. Increasing aliquots of a 1.54 mM and 15.4 mM stock solutions of dsDNACT were successively added and the absorbance spectra were recorded in a range from 400-800 nm after 1 min of each addition. Three independent measurements were carried out. The presented spectra are the resulting mean of the three independent measurements.

[2] = target: dsDNAhGC (double-stranded DNA hairpin with the consensus sequence GGCCC); test: Fluorescence titration with hairpin dsDNAhGC, binding affinity by DynaFit; conditions: 1 µM dye in 10 mM Tris pH 7.6 and 50 mM KCI, 20°C, emission at 650 nm, 1:1 binding model, read-out: binding affinity (KD, apparent dissociation constant)
Experimental: (§1) Fluorescence measurements and tritations were performed on a Jasco FP-6500 spectrofluorometer equipped with a Thermo Haake WKL 26 water recirculator at 20°C. Unless otherwise noted, a 1400 µL fluorescence cuvette of HellmaAnalytics (104F-QS) was used and the measurements were performed with the following settings: increment: 1.0 nm; integration time: 0.2 s; speed: 500 nm/min; sensitivity: medium; excitation slit width: 3 nm; emission slit width: 3 nm; excitation wavelength 610 nm. The emission spectra were recorded from 625 to 750 nm at 20°C. From all spectra, the corresponding background signal was substracted. […] Table 1: Binding sites and sequences of DNA hairpins, which were used for fluorescence titrations experiments.
(§2) All fluorescence titrations followed the same procedure: to 1 mL of 1 µM solution of corresponding cyanine dye derivative in 10 mM Tris pH 7.6 and 50 mM KCI aliquots of a stock solution of the corresponding annealed DNA (dsDNAhAT and dsDNAhGC = 435 µM; dsDNACT = 0.65 mM) were successively added and the fluorescence spectra were recorded in a range from 625-750 nm after 1 min of each addition. […] The fluorescence emission plotted is the resulting mean of the three independent measurements. […]
(§3) All binding affinities were determined by fitting the obtained experimental data in the DynaFit 4.0 software. […]

[3] = test system: antibiotic-sensitive Klebsiella pneumoniae (K. pneumoniae); test: Bacteria culture and staining: growth and FACS labeling of sensitive K. pneumoniae; assay type: cell-based; conditions: 2.5 µM dye
Experimental: (§4) Escherichia coli (E. coli) NEB5α (New England Biolabs) and antibiotic-resistant and -sensitive Klebsiella pneumoniae (K. pneumoniae) were cultured in Luria-Bertani (LB) solid medium (LB-Agar) overnight at 37°C. The source of the K. pneumoniae strands is of no relevance to the invention. The invention may be applied to all types of microorganisms (bacteria, viri, fungi etc.) or other cells, either contained within a sample or isolated from a sample. For staining, growth curve analysis and replating experiments bacteria were suspended in LB liquid medium at an OD600 nm of 1.0 and 800 µL were transferred into a culture tube containing 7.2 mL of LB liquid medium supplemented with DMSO or candidate dyes (2.5 µM) final concentration). Density of bacterial cultures was measured using an Ultrospec 10 Cell Density Meter with 600 nm LED source (Amersham Biosciences). […]
(§5) Bacteria and macrophages were washed with PBS prior to flow cytometry and analysed using a Guava easyCyte flow cytometer (Millipore). FCS3.0 files were analysed using Flowing Software (http://flowingsoftware.btk.fi/). Cells were first gated in the forward- / side-scatter plot to exclude debries, followed by quadrant gating in plots using the fluorescence channels as shown above. […] Propidium iodide signal was recorded in the yellow channel.

[4] = test system: dsDNACT; test: Thermal melting analysis of dsDNACT; assay type: binding, calf
Experimental: Thermal melting analysis was performed on a Jasco J-810 spectropolarimeter equipped with a Jasco CDF-426S peliter controller and a Thermo Haake WKL 26 water recirculator. It was measured at a concentration of 45 µM of dsDNACT with and without 1.8 µM of 6-TramTO-3 in 10 mM Tris pH 7.5. The measurement was performed at 260 nm, with a response of 2 s, a band width of 10 nm, from 40-95°C, a slope of 2°C/min. Three independent measurements were recorded and the intensity normalized.

[5] = test system: antibiotic-resistant Klebsiella pneumoniae (K. pneumoniae); assay type: cell-based; conditions: 2.5 µM dye
Experimental: as §4, §5

[6] = test system: Escherichia coli (E. coli) NEB5α; test: Bacteria culture and staining: growth and FACS labeling of E. coli; assay type: cell-based
Experimental: Escherichia coli (E. coli) NEB5α (New England Biolabs) and antibiotic-resistant and -sensitive Klebsiella pneumoniae (K. pneumoniae) were cultured in Luria-Bertani (LB) solid medium (LB-Agar) overnight at 37°C. The source of the K. pneumoniae strands is of no relevance to the invention. The invention may be applied to all types of microorganisms (bacteria, viri, fungi etc.) or other cells, either contained within a sample or isolated from a sample. For staining, growth curve analysis and replating experiments bacteria were suspended in LB liquid medium at an OD600 nm of 1.0 and 800 µL were transferred into a culture tube containing 7.2 mL of LB liquid medium supplemented with DMSO or candidate dyes (2.5 µM) final concentration). Density of bacterial cultures was measured using an Ultrospec 10 Cell Density Meter with 600 nm LED source (Amersham Biosciences). For bacterial re-plating experiments bacteria were sampled at OD600 nm = 2.0 and 5 µL of indicated dilutions in LB-medium were spotted onto LB-agar plates (Fig. 5) or 100 µL were plated onto LB-agar plates followed by incubation at 37°C until colonies became visible.
Bacteria and macrophages were washed with PBS prior to flow cytometry and analysed using a Guava easyCyte flow cytometer (Millipore). FCS3.0 files were analysed using Flowing Software (http://flowingsoftware.btk.fi/). Cells were first gated in the forward- / side-scatter plot to exclude debries, followed by quadrant gating in plots using the fluorescence channels as shown above. For discrimination of live/dead cell discrimination cells in PBS were supplemented with 0.4 µL/mL propidium-iodide (5 mg/ml solution) followed by 5 min incubation on ice. Propidium iodide signal was recorded in the yellow channel.

[7] = test system: double-stranded calf thymus DNA (dsDNACT); test: Fluorescence titration with dsDNACT, binding affinity by DynaFit; conditions: 1 µM dye in 10 mM Tris pH 7.6 and 50 mM KCI, 20°C, emission at 647 nm, 1:1 binding model, read-out: binding affinity (KD, apparent dissociation constant)
Experimental: as §1, §2, §3

CC[n+]1ccc(/C=C/C=C2\Sc3ccccc3N2CCCCCCn2cc(CN)nn2)c2ccccc21.[I-] [6-TramTO-3, 4-((1E,3Z)-3-(3-(6-(4-(aminomethyl)-1H-1,2,3-triazol-1-yl)hexyl)benzo[d]thiazol-2(3H)-ylidene)prop-1-en-1-yl)-1-ethylquinolin-1-ium iodide]
blue shift of the absorption maximum [1]: 102 nm
Kd [2]: 0.104 ± 0.054 µM
bacterial growth in presence of dye [3]: grew normally
fluorescent labeling of live bacteria (FACS) ([3]; OD600 = 2.0): successfully fluorescently labeled
melting point of dsDNACT with addition of dye ([4]; 45 µM dsDNACT with 1.8 µM dye in 10 mM Tris pH 7.5, dsDNACT alone 68.12°C): 72.66 °C
ΔTm ([4]; dsDNACT stabilization upon dye binding, 45 µM dsDNACT, 1.8 µM dye, 10 mM Tris pH 7.5): 5 °C
bacterial growth in presence of dye [5]: grew normally
fluorescent labeling of live bacteria (FACS) ([5]; OD600 = 2.0): successfully fluorescently labeled
bacterial growth in presence of dye ([6]; 2.5 µM dye in LB medium, OD600 over time, liquid and solid medium): fully compatible with normal bacterial growth; also recorded: grew normally
fluorescent labeling of live bacteria (FACS) ([6]; 2.5 µM dye in culture medium, FACS at mid-exponential growth phase (OD600 = 2.0)): successfully fluorescently labeled
Kd [7]: 19.5 ± 2.6 µM

— patent EP3572468B1, “CYANINE DYES AND THEIR USAGE FOR IN VIVO STAINING OF MICROORGANISMS” (PHILIPPS-UNIVERSITÄT MARBURG, priority 2018, dated 2019)
